Data: patent publication US20240383852A1, “ANTI-VIRAL COMPOUNDS” (INFEX Therapeutics Limited, priority 2021, published 2024)
Where a name gives a salt, the structure may show the parent alone. Read-outs that look alike come from different tables or passages of the source.

Columns and labels:
SARS-CoV-2 PLpro = target: T1, SARS-CoV-2 PLpro (Severe acute respiratory syndrome coronavirus 2, UniProt P0DTD1); assay: biochemical
T1 construct: containing 60 nM papain-like protease

[1] = tested on: human Hep G2 cells (ATCC HB-8065); assay: Cytotoxicity in Hep G2 cells (CellTiter-Glo); assay type: cell-based
SARS-CoV-2 = assay: Anti-viral potency in VERO E6 cells (cytopathic viral activity, crystal violet); assay type: cell-based; conditions: Severe acute respiratory syndrome coronavirus 2, Vero C1008, 48 h, read-out: SARS-COV-2 EC50 (μM)
[2] = 60 nM papain-like protease, 50 μM Z-RLRGG-AMC, pH 7.5, 37° C., read-out: SARS-CoV-2 PLpro IC50
[3] = Hep G2 cells, 100 μM test article, 24-hour exposure

`Cc1ccc(N2CCN(C)CC2)cc1C(=O)N[C@H](C)c1cccc(-c2cc(C(=O)N(C)C)n(C)c2)c1` [Example 102, N,N,1-Trimethyl-4-[3-[(1R)-1-[[2-methyl-5-(4-methylpiperazin-1-yl)benzoyl]amino]ethyl]phenyl]pyrrole-2-carboxamide] was tested, and the IC50 (SARS-CoV-2 PLpro; [2]) was < 2 µM, the “% Cell Viability” value [1, 3] was 75.9% and the EC50 (SARS-CoV-2) was < 5 µM.

In the case of `COc1ccc([C@@H](C)NC(=O)c2cc(N3CCN(C)CC3)ccc2C)cc1-c1cnn(C)c1` [Example 205, N-[(1R)-1-[4-Methoxy-3-(1-methylpyrazol-4-yl)phenyl]ethyl]-2-methyl-5-(4-methylpiperazin-1-yl)benzamide], the IC50 (SARS-CoV-2 PLpro; [2]) is reported as < 2 µM, the “% Cell Viability” value [1, 3] is reported as 105.8% and the EC50 (SARS-CoV-2) is reported as < 5 µM.

In the case of `COc1ccc([C@@H](C)NC(=O)c2cc(N3CCN(C)CC3)ccc2C)cc1-c1cn(C)nc1C` [Example 212, N-[(1R)-1-[3-(1,3-Dimethylpyrazol-4-yl)-4-methoxy-phenyl]ethyl]-2-methyl-5-(4-methylpiperazin-1-yl)benzamide], the IC50 (SARS-CoV-2 PLpro; [2]) is reported as < 2 µM, the “% Cell Viability” value [1, 3] is reported as 96.8% and the EC50 (SARS-CoV-2) is reported as < 5 µM.

In the case of `COc1cc(OC)c([C@@H](C)NC(=O)c2cc(N3CCN(C)CC3)ccc2C)cc1-c1cnn(C)c1` [Example 215, N-[(1R)-1-[2,4-Dimethoxy-5-(1-methylpyrazol-4-yl)phenyl]ethyl]-2-methyl-5-(4-methylpiperazin-1-yl)benzamide], the IC50 (SARS-CoV-2 PLpro; [2]) is reported as < 2 µM, the “% Cell Viability” value [1, 3] is reported as 80.1% and the EC50 (SARS-CoV-2) is reported as < 5 µM.

In the case of `Cc1ccc(N2CCN(C)CC2)cc1C(=O)N[C@H](C)c1ccc(F)c(-c2cnn(C)c2)c1` [Example 217, N-[(1R)-1-[4-Fluoro-3-(1-methylpyrazol-4-yl)phenyl]ethyl]-2-methyl-5-(4-methylpiperazin-1-yl)benzamide], the IC50 (SARS-CoV-2 PLpro; [2]) is reported as < 2 µM, the “% Cell Viability” value [1, 3] is reported as 61.7% and the EC50 (SARS-CoV-2) is reported as < 5 µM.

`CCn1cc(-c2cc(OC)cc([C@@H](C)NC(=O)c3cc(N4CCN(C)CC4)ccc3C)c2)cn1` [Example 220, N-[(1R)-1-[3-(1-Ethylpyrazol-4-yl)-5-methoxy-phenyl]ethyl]-2-methyl-5-(4-methylpiperazin-1-yl)benzamide] was tested, and the IC50 (SARS-CoV-2 PLpro; [2]) was < 2 µM, the “% Cell Viability” value [1, 3] was 80.7% and the EC50 (SARS-CoV-2) was < 15 µM.

With `COc1cc(-c2cnn(C3CC3)c2)cc([C@@H](C)NC(=O)c2cc(N3CCN(C)CC3)ccc2C)c1` [Example 221, N-[(1R)-1-[3-(1-Cyclopropylpyrazol-4-yl)-5-methoxy-phenyl]ethyl]-2-methyl-5-(4-methylpiperazin-1-yl)benzamide] the IC50 (SARS-CoV-2 PLpro; [2]) was < 2 µM, the “% Cell Viability” value [1, 3] was 74.9% and the EC50 (SARS-CoV-2) was < 5 µM.

`COc1ccc([C@@H](C)NC(=O)c2cc(N3C[C@H]4C[C@@H]3CN4C)ccc2C)cc1-c1cnn(C)c1` [Example 227, N-[(1R)-1-[4-Methoxy-3-(1-methylpyrazol-4-yl)phenyl]ethyl]-2-methyl-5-[(1R,4R)-5-methyl-2,5-diazabicyclo[2.2.1]heptan-2-yl]benzamide] was tested, and the IC50 (SARS-CoV-2 PLpro; [2]) was < 2 µM, the “% Cell Viability” value [1, 3] was 89.9% and the EC50 (SARS-CoV-2) was < 5 µM.

`COc1cc(-c2cn(C)nc2C)cc([C@@H](C)NC(=O)c2cc(N3C[C@H]4C[C@@H]3CN4C)ccc2C)c1` [Example 230, N-[(1R)-1-[3-(1,3-Dimethylpyrazol-4-yl)-5-methoxy-phenyl]ethyl]-2-methyl-5-[(1R,4R)-5-methyl-2,5-diazabicyclo[2.2.1]heptan-2-yl]benzamide] was tested, and the IC50 (SARS-CoV-2 PLpro; [2]) was < 2 µM, the “% Cell Viability” value [1, 3] was 38.3% and the EC50 (SARS-CoV-2) was < 5 µM.

In the case of `COc1cc(-c2cn(C)nc2C)cc([C@@H](C)NC(=O)c2cc(N3CCN(C)CC3)ccc2C)c1` [Example 233, N-[(1R)-1-[3-(1,3-Dimethylpyrazol-4-yl)-5-methoxy-phenyl]ethyl]-2-methyl-5-(4-methylpiperazin-1-yl)benzamide], the IC50 (SARS-CoV-2 PLpro; [2]) is reported as < 2 µM, the “% Cell Viability” value [1, 3] is reported as 88.9% and the EC50 (SARS-CoV-2) is reported as < 5 µM.

In the case of `COc1cc(-c2cnn(C)c2)cc([C@@H](C)NC(=O)c2cc(N3CCNCC3)ccc2C)c1` [Example 235, N-[(1R)-1-[3-Methoxy-5-(1-methylpyrazol-4-yl)phenyl]ethyl]-2-methyl-5-piperazin-1-yl-benzamide], the IC50 (SARS-CoV-2 PLpro; [2]) is reported as < 2 µM, the “% Cell Viability” value [1, 3] is reported as 90.6% and the EC50 (SARS-CoV-2) is reported as < 5 µM.

For `COc1ccc(-c2cnn(C)c2)cc1[C@@H](C)NC(=O)c1cc(N2CCN(C)CC2)ccc1C` [Example 239, N-[(1R)-1-[2-Methoxy-5-(1-methylpyrazol-4-yl)phenyl]ethyl]-2-methyl-5-(4-methylpiperazin-1-yl)benzamide], the IC50 (SARS-CoV-2 PLpro; [2]) was < 2 µM, the “% Cell Viability” value [1, 3] was 101.6% and the EC50 (SARS-CoV-2) was < 5 µM.

`COc1cc(-c2cnn(C)c2)cc([C@@H](C)NC(=O)c2cc(N3C[C@H]4C[C@@H]3CN4C)ccc2C)c1` [Example 244, N-[(1R)-1-[3-Methoxy-5-(1-methylpyrazol-4-yl)phenyl]ethyl]-2-methyl-5-[(1R,4R)-5-methyl-2,5-diazabicyclo[2.2.1]heptan-2-yl]benzamide] was tested, and the IC50 (SARS-CoV-2 PLpro; [2]) was < 2 µM, the “% Cell Viability” value [1, 3] was 67.1% and the EC50 (SARS-CoV-2) was < 5 µM.

In the case of `COc1cc(-c2cnn(C)c2)cc([C@@H](C)NC(=O)c2cc(N3CCN(CC4CC4)CC3)ccc2C)c1` [Example 245, 5-[4-(Cyclopropylmethyl)piperazin-1-yl]-N-[(1R)-1-[3-methoxy-5-(1-methylpyrazol-4-yl)phenyl]ethyl]-2-methyl-benzamide], the IC50 (SARS-CoV-2 PLpro; [2]) is reported as < 2 µM, the “% Cell Viability” value [1, 3] is reported as 58.4% and the EC50 (SARS-CoV-2) is reported as < 5 µM.

In the case of `COc1ccc([C@@H](C)NC(=O)c2cc(N3CCN(C)CC3)ccc2C)cc1-c1nccs1` [Example 251, N-[(1R)-1-(4-Methoxy-3-thiazol-2-yl-phenyl)ethyl]-2-methyl-5-(4-methylpiperazin-1-yl)benzamide], the IC50 (SARS-CoV-2 PLpro; [2]) is reported as < 2 µM, the “% Cell Viability” value [1, 3] is reported as 63.2% and the EC50 (SARS-CoV-2) is reported as < 5 µM.

With `Cc1ccc(N2CCN(C)CC2)cc1C(=O)N[C@H](C)c1ccc(Cl)c(-c2cnn(C)c2)c1` [Example 252, N-[(1R)-1-[4-Chloro-3-(1-methylpyrazol-4-yl)phenyl]ethyl]-2-methyl-5-(4-methylpiperazin-1-yl)benzamide] the IC50 (SARS-CoV-2 PLpro; [2]) was < 2 µM, the “% Cell Viability” value [1, 3] was 49.4% and the EC50 (SARS-CoV-2) was < 5 µM.

For `COc1cc(-c2cnn(C)c2C)cc([C@@H](C)NC(=O)c2cc(N3CCN(C)CC3)ccc2C)c1` [Example 253, N-[(1R)-1-[3-(1,5-Dimethylpyrazol-4-yl)-5-methoxy-phenyl]ethyl]-2-methyl-5-(4-methylpiperazin-1-yl)benzamide hydrochloride salt], the IC50 (SARS-CoV-2 PLpro; [2]) was < 2 µM, the “% Cell Viability” value [1, 3] was 89.3% and the EC50 (SARS-CoV-2) was < 5 µM.

In the case of `COc1ccc([C@@H](C)NC(=O)c2cc(N3CCNCC3)ccc2C)cc1-c1cnn(C)c1` [Example 260, N-[(1R)-1-[4-Methoxy-3-(1-methylpyrazol-4-yl)phenyl]ethyl]-2-methyl-5-piperazin-1-yl-benzamide], the IC50 (SARS-CoV-2 PLpro; [2]) is reported as < 2 µM, the “% Cell Viability” value [1, 3] is reported as 91.1% and the EC50 (SARS-CoV-2) is reported as < 15 µM.

In the case of `COc1ccc([C@@H](C)NC(=O)c2cc(N3CC4CNCC4C3)ccc2C)cc1-c1cnn(C)c1` (stereo partly drawn) [Example 261, 5-(2,3,3a,4,6,6a-Hexahydro-1H-pyrrolo[3,4-c]pyrrol-5-yl)-N-[(1R)-1-[4-methoxy-3-(1-methylpyrazol-4-yl)phenyl]ethyl]-2-methyl-benzamide], the IC50 (SARS-CoV-2 PLpro; [2]) is reported as < 2 µM, the “% Cell Viability” value [1, 3] is reported as 49.2% and the EC50 (SARS-CoV-2) is reported as < 15 µM.

`COc1ccc([C@@H](C)NC(=O)c2cc(N3C[C@H]4CC[C@@H](C3)N4)ccc2C)cc1-c1cnn(C)c1` [Example 266, 5-[(1S,5R)-3,8-Diazabicyclo[3.2.1]octan-3-yl]-N-[(1R)-1-[4-methoxy-3-(1-methylpyrazol-4-yl)phenyl]ethyl]-2-methyl-benzamide hydrochloride salt] was tested, and the IC50 (SARS-CoV-2 PLpro) was < 2 µM, the “% Cell Viability” value ([1]; human, 24 h, 100 μM) was 61.1% and the EC50 (SARS-CoV-2) was < 5 µM.

For `COc1cc(-c2cnn(C)c2)cc([C@@H](C)NC(=O)c2cc(N3C[C@H]4CC[C@@H](C3)N4)ccc2C)c1` [Example 272, 5-[(1R,5S)-3,8-diazabicyclo[3.2.1]octan-3-yl]-N-[(1R)-1-[3-methoxy-5-(1-methyl-1H-pyrazol-4-yl)phenyl]ethyl]-2-methylbenzamide], the IC50 (SARS-CoV-2 PLpro) was < 2 µM, the “% Cell Viability” value ([1]; human, 24 h, 100 μM) was 74.3% and the EC50 (SARS-CoV-2) was < 5 µM.

For `COCCOc1ccc([C@@H](C)NC(=O)c2cc(N3CCN(C)CC3)ccc2C)cc1-c1cnn(C)c1` [Example 280, N-[(1R)-1-[4-(2-Methoxyethoxy)-3-(1-methylpyrazol-4-yl)phenyl]ethyl]-2-methyl-5-(4-methylpiperazin-1-yl)benzamide], the IC50 (SARS-CoV-2 PLpro; [2]) was < 2 µM, the “% Cell Viability” value [1, 3] was 76.7% and the EC50 (SARS-CoV-2) was < 5 µM.

In the case of `COc1cc(-c2cc(C(=O)N(C)C)n(C)c2)cc([C@@H](C)NC(=O)c2cc(N3CCN(C)CC3)ccc2C)c1` [Example 289, 4-[3-Methoxy-5-[(1R)-1-[[2-methyl-5-(4-methylpiperazin-1-yl)benzoyl]amino]ethyl]phenyl]-N,N,1-trimethyl-pyrrole-2-carboxamide], the IC50 (SARS-CoV-2 PLpro; [2]) is reported as < 2 µM, the “% Cell Viability” value [1, 3] is reported as 59.5% and the EC50 (SARS-CoV-2) is reported as < 5 µM.

`COc1cc([C@@H](C)NC(=O)c2cc(N3CCN(C)CC3)ccc2C)ccc1OCCN1CCOCC1` [Example 293, N-[(1R)-1-[3-Methoxy-4-(2-morpholinoethoxy)phenyl]ethyl]-2-methyl-5-(4-methylpiperazin-1-yl)benzamide] was tested, and the IC50 (SARS-CoV-2 PLpro; [2]) was < 2 µM, the “% Cell Viability” value [1, 3] was 102.3% and the EC50 (SARS-CoV-2) was < 5 µM.

In the case of `COc1ccc([C@@H](C)NC(=O)c2cc(N3CCN(C)CC3)ccc2C)cc1OCC1CC1` [Example 296, N-[(1R)-1-[3-(Cyclopropylmethoxy)-4-methoxy-phenyl]ethyl]-2-methyl-5-(4-methylpiperazin-1-yl)benzamide], the IC50 (SARS-CoV-2 PLpro; [2]) is reported as < 2 µM, the “% Cell Viability” value [1, 3] is reported as 76.1% and the EC50 (SARS-CoV-2) is reported as < 15 µM.

With `COc1ccc([C@@H](C)NC(=O)c2cc(C3CCN(C)CC3)ccc2C)cc1-c1cnn(C)c1` [Example 300, N-[(1R)-1-[4-Methoxy-3-(1-methylpyrazol-4-yl)phenyl]ethyl]-2-methyl-5-(1-methyl-4-piperidyl)benzamide] the IC50 (SARS-CoV-2 PLpro; [2]) was < 2 µM, the “% Cell Viability” value [1, 3] was 74.7% and the EC50 (SARS-CoV-2) was < 5 µM.
